Experimental data taken from article PMC11448502, “Cryo-EM structures of the human P2X1 receptor reveal subtype-specific architecture and antagonism by supramolecular ligand-binding” (Nature Communications, 2024).

B1: full-length wild-type human P2X1 receptor (receptor, UniProt P51575 1-399, looked up)
chain: MARRFQEELAAFLFEYDTPRMVLVRNKKVGVIFRLIQLVVLVYVIGWVFLYEKGYQTSSGLISSVSVKLKGLAVTQLPGLGPQVWDVADYVFPAQGDNSFVVMTNFIVTPKQTQGYCAEHPEGGICKEDSGCTPGKAKRKAQGIRTGKCVAFNDTVKTCEIFGWCPVEVDDDIPRPALLREAENFTLFIKNSISFPRFKVNRRNLVEEVNAAHMKTCLFHKTLHPLCPVFQLGYVVQESGQNFSTLAEKGGVVGITIDWHCDLDWHVRHCRPIYEFHGLYEEKNLSPGFNFRFARHFVENGTNYRHLFKVFGIRFDILVDGKAGKFDIIPTMTTIGSGIGIFGVATVLCDLLLLHILPKRHYYKQKKFKYAEDMGPGAAERDLAATSSTLGLQENMRTS
modifications: N-linked glycosylation (N-acetylglucosamine modelled in the extracellular domain, e.g. at N184)
notes: human P2X1 receptor (P2X purinoceptor 1), full-length wild type, no mutations or truncations; Cytoplasmic N- and C-terminal residues are not visible in the maps; also called hP2X1; hP2X1-WT; source: HEK293 GNTI- cells, BacMam baculovirus transduction; solubilised in DDM/CHS, purified (TALON resin, HRV 3C protease digestion, SEC on Superdex 200 increase)

How the values were obtained:
P2X1 = conditions: reviewer comment, no reference given; cited from earlier work
[1] = target: the molecule itself; test: cryo-EM structure; single particle cryo-EM of purified hP2X1 in C12M (DDM)/CHS, 20 mM HEPES pH 7.0, 100 mM NaCl, 5 mg/mL; three states: apo closed, ATP-bound desensitized (endogenous ATP), NF449-bound inhibited (400 uM NF449)

| Molecule | potency for P2X1 relative to P2X3 (P2X1) [times] | stoichiometry N [1] |
| --- | --- | --- |
| Nc1ncnc2c1ncn2[C@@H]1O[C@H](COP(=O)(O)CP(=O)(O)OP(=O)(O)O)[C@@H](O)[C@H]1O [α, β-MeATP] | 10 |  |
| B1 |  | 3 |
